# Assay results from paper PMC12436592 (Nature Communications, 2025).
# Values joined by “and” are separate entries in the source; they are usually repeats but may differ in a detail not shown here. Identical values can stand only once. “Also recorded” adds a separate entry of the source.
# Key:
# hP2X3R = target: T1, hP2X3R (Homo sapiens, UniProt P56373, S15V); test: Calcium influx assay, 1321N1 astrocytoma cells, ATP EC80; format: cell-based
# T1 construct: expressed in transfected cells; host or cells: 1321N1 astrocytoma cells, retroviral expression system
# T1 sequence (P56373 1-397 S15V): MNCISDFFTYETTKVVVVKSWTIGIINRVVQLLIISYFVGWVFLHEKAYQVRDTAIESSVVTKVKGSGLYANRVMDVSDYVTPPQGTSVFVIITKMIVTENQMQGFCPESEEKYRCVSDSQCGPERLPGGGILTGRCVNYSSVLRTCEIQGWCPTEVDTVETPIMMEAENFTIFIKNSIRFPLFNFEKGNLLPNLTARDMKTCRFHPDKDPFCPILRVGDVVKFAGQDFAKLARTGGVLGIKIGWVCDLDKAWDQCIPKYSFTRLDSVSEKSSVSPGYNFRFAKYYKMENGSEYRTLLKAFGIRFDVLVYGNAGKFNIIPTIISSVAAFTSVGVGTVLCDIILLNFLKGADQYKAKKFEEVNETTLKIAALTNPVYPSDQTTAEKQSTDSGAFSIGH
# Source text: For 1321N1 astrocytoma cells stably expressing the human, rat, or mouse P2X7Rs, or hP2X2Rs or hP2X4Rs, the fluorescent Ca^2+-chelating dye Fluo-4 acetoxymethyl ester (Fluo-4 AM, Thermo Fisher Scientific, Dreieich, Germany) was used. For 1321N1 astrocytoma cell lines recombinantly expressing the hP2X1Rs or hP2X3Rs, the FLIPR® Calcium 5 Assay Kit (Molecular Devices, San José, CA, USA) was employed. Human, rat, and mouse P2X7Rs as well as hP2X1Rs, hP2X2Rs, hP2X3Rs, and hP2X4Rs were recombinantly expressed in 1321N1 astrocytoma cells using a retroviral expression system[72]–[74].
# On the first day, 45,000 cells per well (30,000 cells for the human P2X3 receptor-expressing cells) were seeded into a 96-well polystyrene microplate with a black, flat bottom in a final volume of 200 µL. After overnight incubation at 37 °C and 10% CO2 (5% CO2 for the human P2X3R-expressing cell line), the medium was removed by inverting the plate, and the cells were loaded with dye solution. Hanks’ balanced salt solution (HBSS, Thermo Fisher Scientific, Dreieich, Germany) was used as the assay buffer for human P2X1R, P2X2R, P2X3R, and P2X4R. For the P2X7Rs, a different assay buffer was used: 150 mM sodium-glutamate, 5 mM KCl, 0.5 mM CaCl2, 0.1 mM MgCl2, 10 mM D-glucose, 25 mM 4-(2-hydroxyethyl)-1-piperazineethanesulfonic acid (HEPES), pH 7.4. The dye solutions were freshly prepared. The Fluo-4 AM solution contained 3 µM of Fluo-4 AM in assay buffer and 1% of the non-ionic detergent Pluronic F-127® (Sigma-Aldrich, Taufkirchen, Germany). The Calcium 5 dye, used for hP2X1Rs and hP2X3Rs, was prepared in HBSS buffer. Cells were loaded with Fluo-4 AM and incubated for 1 h at room temperature with gentle shaking (100 rpm), while those loaded with the Calcium 5 dye were incubated for 1 h at 37 °C. After incubation, the dye solution was carefully removed from the plate, and buffer was added to the cells for the evaluation of agonists. […] The agonist solution was prepared in a 96-well transparent plate, obtaining the respective EC80 values. As a control, assay buffer without the test compound was used. After 30 min of incubation with antagonist, the plates were measured using a fluorescence imaging plate reader NOVOstar (BMG Labtech GmbH, Offenburg, Germany) at an excitation wavelength of 485 nm and an emission wavelength of 520 nm, for 30 s at 0.4 s intervals. Calcium influx measurements were then initiated by automatic addition of 20 µL of agonist solution by the plate reader’s pipetting device. Data were analyzed using Microsoft Excel and GraphPad Prism (Version 8.0, San Diego, CA, USA). EC80 and IC50 values were calculated using nonlinear regression with a sigmoidal dose-response equation.
# hP2X4R = tested on: T2, hP2X4R; test: TEVC current traces with co-applied antagonist in Xenopus oocytes; format: cell-based, human; details: 300 µM ATP, 100 nM antagonist
# T2 construct: expressed in transfected cells; host or cells: Xenopus laevis oocytes (cRNA, pNKS2 vector)
"inhibition at 10 µM (hP2X3R; 1321-N1, read-out: % inhibition ± SD at 10 μM, hP2X3R, 10 μM antagonist, ATP 100 nM) [%]",fold more potent at the hP2X7R versus the hP2X3R (hP2X3R; calcium influx IC50 ratio) [fold],"IC50 (hP2X3R; calcium influx, estimated) [µM]",SMILES,"hP2X3R inhibition at 10 μM (hP2X3R; Log(c) M -5, single values, 10 µM, in % (unit assumed))","hP2X3R inhibition, IC50 curve (hP2X3R; Log(c) M -6, in %)",antagonism of the hP2X4R (hP2X4R)
86 ± 9,40,0.707 ± 0.185,"O=C(NNc1ccccc1Cl)C12CC3CC(CC(C3)C1)C2 [UB-ALT-P30, reference compound]",94.9053 and 93.1871 and 60.8032 and 85.3564 and 91.979 and 90.698 and 90.7697 and 79.3438,58.8384 and 67.0023 and 59.1901 and 77.3652,–
–,–,–,CC12CC3CC1(C)C1(C)CC3(C(=O)NNc3ccccc3Cl)CC21C [UB-MBX-46],–,–,virtually no antagonism; also recorded: negligible
